The values below come from PMC5799214, “A Novel Mitochondrial Serine O-Acetyltransferase, OpSAT1, Plays a Critical Role in Sulfur Metabolism in the Thermotolerant Methylotrophic Yeast Ogataea parapolymorpha” (Scientific Reports, 2018).

pIC50: −log10 of the molar value.

Assay [1] has as its target T1, CysE (GST-CysE) (Escherichia coli, UniProt P0A9D4).
T1 construct: template plasmid pCysE
T1 sequence (P0A9D4 2-273): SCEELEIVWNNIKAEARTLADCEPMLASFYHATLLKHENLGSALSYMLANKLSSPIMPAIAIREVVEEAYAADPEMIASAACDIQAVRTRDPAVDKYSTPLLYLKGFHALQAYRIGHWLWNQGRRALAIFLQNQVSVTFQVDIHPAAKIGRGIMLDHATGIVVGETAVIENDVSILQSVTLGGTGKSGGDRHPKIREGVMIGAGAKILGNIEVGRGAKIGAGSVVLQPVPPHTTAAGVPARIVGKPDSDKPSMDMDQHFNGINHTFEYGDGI
Briefly: SAT activity, decrease of OD232 (acetyl-CoA consumption). The format is biochemical. As to conditions: read-out: % residual activity at 1 μM.

Assay [2] addresses T2, OpSat1p (GST-OpSat1p) (Ogataea parapolymorpha, UniProt W1Q867).
T2 construct: gene HPODL_02797; alpha/beta hydrolase 1 domain
T2 sequence (W1Q867 2-499): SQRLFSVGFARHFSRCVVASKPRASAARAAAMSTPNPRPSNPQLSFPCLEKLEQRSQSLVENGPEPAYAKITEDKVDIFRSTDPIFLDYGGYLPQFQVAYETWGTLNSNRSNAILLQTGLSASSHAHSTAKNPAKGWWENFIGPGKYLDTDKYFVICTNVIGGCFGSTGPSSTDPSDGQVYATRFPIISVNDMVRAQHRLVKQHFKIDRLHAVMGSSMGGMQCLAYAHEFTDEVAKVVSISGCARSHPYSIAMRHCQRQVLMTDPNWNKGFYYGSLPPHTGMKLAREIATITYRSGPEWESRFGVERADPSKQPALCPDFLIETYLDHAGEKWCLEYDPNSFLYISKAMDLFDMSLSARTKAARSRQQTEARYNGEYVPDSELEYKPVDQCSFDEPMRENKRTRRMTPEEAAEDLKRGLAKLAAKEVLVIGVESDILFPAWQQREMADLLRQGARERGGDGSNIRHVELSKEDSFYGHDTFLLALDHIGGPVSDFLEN
The description is as above. In kind it is biochemical. As to conditions: read-out: concentration of cysteine at 50% inhibition.

As to `N[C@@H](CS)C(=O)O` [L-cysteine], in assay [1], the remaining activity at 1 µM is ~40%. In addition, the pIC50 in assay [2] was ~3.60.
